Data as given in ChEMBL document CHEMBL5729134, “Apoptosis signal-regulating kinase 1 inhibitors and methods of use thereof” (2022).

What follows are molecules tested against T1, Mitogen-activated protein kinase kinase kinase 5 (Homo sapiens, UniProt Q99683) (assay: HTRF KinEASE Assay : ASK1 was purchased from Thermofisher (Catalogue #PV4011), ATP was purchased from Sigma (Catalogue #A7699), HTRF® KinEASE Assay System was obtained from Cisbio (Bedford, Mass.). ½ Area plate was purchased from Perkin Elmer (Catalogue ##6005560). HTRF® KinEASE-STK is a generic method for measuring serine/threonine kinase activities using a time-resolved fluorescence resonance energy transfer (TR-FRET) immunoassay. The IC50 value for each compound was determined in the presence of compound (various concentration from 0 to 10 μM) and a fixed amount of ATP and peptide substrates. The test compound, 1 μM STK3 peptide substrate, and […] are incubated with kinase reaction buffer containing 50 mM HEPES Ph 7.5, 0.01% BRIJ-35, 10 mM MgCl2, and 1 mM EGTA for 30 minutes. 100 μM ATP is added to start kinase reaction and incubated for 3 hours. The STK3-antibody labeled with Eu3+-Cryptate and 125 nM streptavidin-XL665 are mixed in a single addition with stop reagents provided by the Cisbio kit used to stop the kinase reaction. Fluorescence is detected using an Envision Multilabeled 2014 reader from PerkinElmer. The Fluorescence is measured at 615 nm (Cryptate) and 665 nm (XL665) and a ratio of 665 nm/615 nm is calculated for each well. The resulting TR-FRET is proportional to the phosphorylation level. Staurosporine was used as the positive control. IC50 was determined by Xlfit 5.3.).
T1 sequence (Q99683 whole entry): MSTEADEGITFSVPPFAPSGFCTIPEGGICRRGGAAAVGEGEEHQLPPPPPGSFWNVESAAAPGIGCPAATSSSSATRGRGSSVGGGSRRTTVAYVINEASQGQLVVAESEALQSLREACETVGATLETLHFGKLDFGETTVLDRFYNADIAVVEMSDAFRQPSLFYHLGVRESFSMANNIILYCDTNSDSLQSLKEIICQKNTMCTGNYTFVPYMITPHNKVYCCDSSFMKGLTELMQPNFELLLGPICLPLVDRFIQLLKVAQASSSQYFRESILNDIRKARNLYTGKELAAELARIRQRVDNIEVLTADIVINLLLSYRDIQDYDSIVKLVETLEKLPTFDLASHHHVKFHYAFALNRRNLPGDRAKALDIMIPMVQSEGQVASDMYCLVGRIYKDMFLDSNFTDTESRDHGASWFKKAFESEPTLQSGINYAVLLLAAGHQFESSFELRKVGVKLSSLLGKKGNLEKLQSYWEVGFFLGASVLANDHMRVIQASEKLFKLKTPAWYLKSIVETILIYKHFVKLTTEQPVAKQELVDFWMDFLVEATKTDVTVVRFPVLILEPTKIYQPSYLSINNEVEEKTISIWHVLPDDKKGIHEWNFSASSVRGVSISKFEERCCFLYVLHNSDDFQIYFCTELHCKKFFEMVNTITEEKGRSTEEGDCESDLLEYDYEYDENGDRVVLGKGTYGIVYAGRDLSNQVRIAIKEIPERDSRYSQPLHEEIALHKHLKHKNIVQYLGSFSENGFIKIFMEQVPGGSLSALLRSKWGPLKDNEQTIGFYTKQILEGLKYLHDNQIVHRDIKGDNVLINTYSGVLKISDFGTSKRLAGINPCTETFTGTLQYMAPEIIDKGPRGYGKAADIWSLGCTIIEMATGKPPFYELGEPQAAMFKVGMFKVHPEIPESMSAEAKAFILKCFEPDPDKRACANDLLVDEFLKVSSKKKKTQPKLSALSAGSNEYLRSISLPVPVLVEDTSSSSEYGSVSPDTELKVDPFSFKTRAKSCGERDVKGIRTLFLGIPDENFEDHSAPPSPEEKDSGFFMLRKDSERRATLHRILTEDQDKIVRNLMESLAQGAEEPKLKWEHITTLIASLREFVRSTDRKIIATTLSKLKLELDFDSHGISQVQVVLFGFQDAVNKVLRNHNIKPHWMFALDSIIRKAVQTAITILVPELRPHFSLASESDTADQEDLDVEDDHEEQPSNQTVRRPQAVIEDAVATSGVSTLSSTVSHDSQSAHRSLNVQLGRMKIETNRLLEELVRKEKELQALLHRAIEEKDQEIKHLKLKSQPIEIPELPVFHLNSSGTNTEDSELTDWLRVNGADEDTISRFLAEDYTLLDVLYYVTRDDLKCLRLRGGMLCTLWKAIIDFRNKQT
`CC(C)n1cnnc1-c1cccc(NC(=O)c2cc3c(cn2)CCN(S(=O)(=O)c2ccccc2)C3)n1` showed an IC50 of 1.25 to 10 nM.
For `CC(C)OC(=O)N1CCc2cc(F)c(C(=O)Nc3cccc(-c4nncn4[C@H](C)CO)n3)cc2C1`, the IC50 was less than 1.25 nM.
In the case of `COc1cc2c(cc1C(=O)Nc1cccc(-c3nncn3[C@H](C)CO)n1)CN(C(=O)C(C)(C)C)CC2`, the IC50 is reported as less than 1.25 nM.
`COc1cc2c(cc1C(=O)Nc1cccc(-c3nnnn3[C@H](C)CO)n1)CN(C(=O)c1cn(C3CC3)cn1)CC2` gave an IC50 of 1.25 to 10 nM.
`CCOC(=O)N1CCc2cnc(C(=O)Nc3cccc(-c4nncn4C(C)C)n3)cc2C1` was tested, and the IC50 was 1.25 to 10 nM.
With `COc1cc2c(cc1C(=O)Nc1cccc(-c3nncn3[C@H](C)CO)n1)CN(C(=O)c1ccc(F)cc1)CC2` the IC50 was 1.25 to 10 nM.
Molecule `C[C@H](CO)n1cnnc1-c1cccc(NC(=O)c2cc3c(cn2)CCN(C(=O)OCC(F)(F)F)C3)n1` has an IC50 of less than 1.25 nM.
`COc1cc2c(cc1C(=O)Nc1cccc(-c3nnnn3C(C)C)n1)CN(C(C)C)CC2` was tested, and the IC50 was 1.25 to 10 nM.
Molecule `COc1cc2c(cc1C(=O)Nc1cccc(-c3nncn3[C@H](C)CO)n1)CN(S(=O)(=O)C1CC1)CC2` has an IC50 of 1.25 to 10 nM.
In the case of `COc1cc2c(cc1C(=O)Nc1cccc(-c3nncn3[C@H](C)CO)n1)CN(C(=O)N1CCCC1)CC2`, the IC50 is reported as less than 1.25 nM.
`COc1cc2c(cc1C(=O)Nc1cccc(-c3nncn3[C@H](C)CO)n1)CN(S(=O)(=O)CCC(F)(F)F)CC2` gave an IC50 of less than 1.25 nM.
Molecule `CC(C)n1cnnc1-c1cccc(NC(=O)c2cc3c(cc2F)CCN(c2ncccn2)C3)n1` has an IC50 of less than 1.25 nM.
`CCNC(=O)N1CCc2cnc(C(=O)Nc3cccc(-c4nncn4[C@H](C)CO)n3)cc2C1` showed an IC50 of 1.25 to 10 nM.
`COc1cc2c(cc1C(=O)Nc1cccc(-c3nnnn3[C@H](C)CO)n1)CN(C(=O)c1cnn(C)c1)CC2` showed an IC50 of less than 1.25 nM.
`C[C@H](CO)n1cnnc1-c1cccc(NC(=O)c2cc3c(cn2)CCN(S(=O)(=O)N(C)C)C3)n1` showed an IC50 of less than 1.25 nM.
`C[C@H](CO)n1cnnc1-c1cccc(NC(=O)c2cc3c(cc2F)CCN(C(=O)OC2CCCC2)C3)n1` was tested, and the IC50 was 1.25 to 10 nM.
Work on `COc1cc2c(cc1C(=O)Nc1cccc(-c3nncn3C(C)C)n1)CN(S(=O)(=O)C1CC1)CC2` yielded an IC50 of 1.25 to 10 nM.
